{"source": "PubChem BioAssay (NCI)", "experiment_in_all_cases": "NCI tumour cell line growth inhibition, 48 h", "key": {"[1]": {"test_system": "MDA-N"}, "[2]": {"test_system": "RXF-631 renal"}, "[3]": {"test_system": "SNB-78 CNS"}, "[4]": {"test_system": "HOP-18 NSCLC"}, "[5]": {"test_system": "LXFL 529 NSCLC"}, "[6]": {"test_system": "XF 498 CNS"}, "[7]": {"test_system": "KM20L2 colon"}, "[8]": {"test_system": "M19-MEL melanoma"}, "[9]": {"test_system": "DMS 273 small cell lung"}, "[10]": {"test_system": "P388/ADR leukemia"}, "[11]": {"test_system": "P388 leukemia"}, "[12]": {"test_system": "SN12K1 renal"}}, "note": "Where “and” joins values, the source holds several entries; their conditions need not be identical. Equal entries are not always repeated.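 Grown in 96-well plates, cells were treated for 48 hours with each compound at five concentrations. Insufficient inhibition: endpoint recorded as highest concentration tested. At the GI50, growth is halved. At the TGI there is no net growth.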", "data": [{"smiles": "Cc1ccc(S(=O)(=O)Nc2ccccc2C(=O)c2ccc(C)c(C)c2)cc1", "values": [{"measurement": "TGI", "setting": "[1]", "value": "> 100", "unit": "µM"}]}, {"smiles": "CC(C)(C)OC(=O)N[C@H]1CC2(C=C(Cl)C(=O)C(Cl)=C2)OC1=O", "values": [{"measurement": "TGI", "setting": "[2]", "value": 30.5, "unit": "µM"}, {"measurement": "TGI", "setting": "[3]", "value": 40, "unit": "µM"}, {"measurement": "TGI", "setting": "[4]", "value": 30.4, "unit": "µM"}, {"measurement": "TGI", "setting": "[1]", "value": 35.5, "unit": "µM"}, {"measurement": "TGI", "setting": "[5]", "value": 23.8, "unit": "µM"}, {"measurement": "TGI", "setting": "[6]", "value": 34.5, "unit": "µM"}, {"measurement": "TGI", "setting": "[7]", "value": 39.4, "unit": "µM"}, {"measurement": "TGI", "setting": "[8]", "value": 30.9, "unit": "µM"}, {"measurement": "TGI", "setting": "[9]", "value": 32.9, "unit": "µM"}]}, {"smiles": "CC1(C)C2CCC(=O)C1CC2", "note": "(stereo not given)", "values": [{"measurement": "TGI", "setting": "[1]", "value": "> 100", "unit": "µM"}]}, {"smiles": "COc1ccc(S(=O)(=O)NNS(C)(=O)=O)cc1", "values": [{"measurement": "TGI", "setting": "[2]", "value": "> 100", "unit": "µM"}, {"measurement": "TGI", "setting": "[5]", "value": "> 100", "unit": "µM"}, {"measurement": "TGI", "setting": "[6]", "value": "> 100", "unit": "µM"}, {"measurement": "TGI", "setting": "[7]", "value": "> 100", "unit": "µM"}, {"measurement": "TGI", "setting": "[8]", "value": "> 100", "unit": "µM"}, {"measurement": "TGI", "setting": "[9]", "value": "> 100", "unit": "µM"}]}, {"smiles": "CN(C)c1nc(=Nc2ccc(N=c3nc(N(C)C)ss3)cc2)ss1", "values": [{"measurement": "TGI", "setting": "[2]", "value": 38.8, "unit": "µM"}, {"measurement": "TGI", "setting": "[3]", "value": 38.5, "unit": "µM"}, {"measurement": "TGI", "setting": "[4]", "value": "> 100", "unit": "µM"}, {"measurement": "TGI", "setting": "[5]", "value": "> 52.1", "unit": "µM"}, {"measurement": "TGI", "setting": "[7]", "value": "> 100", "unit": "µM"}, {"measurement": "TGI", "setting": "[8]", "value": 40.1, "unit": "µM"}, {"measurement": "TGI", "setting": "[9]", "value": "> 64", "unit": "µM"}]}, {"smiles": "Nc1ncnc2c1nnn2C1OC(CO)C(O)C1O", "note": "(stereo not given)", "values": [{"measurement": "TGI", "setting": "[3]", "value": "> 100", "unit": "µM"}, {"measurement": "TGI", "setting": "[10]", "value": 26.7, "unit": "µM"}, {"measurement": "TGI", "setting": "[4]", "value": 11.8, "unit": "µM"}, {"measurement": "TGI", "setting": "[6]", "value": 47.3, "unit": "µM"}, {"measurement": "TGI", "setting": "[11]", "value": 16.1, "unit": "µM"}, {"measurement": "TGI", "setting": "[7]", "value": "> 74.3", "unit": "µM"}, {"measurement": "TGI", "setting": "[8]", "value": 39.2, "unit": "µM"}, {"measurement": "TGI", "setting": "[9]", "value": 13.6, "unit": "µM"}, {"measurement": "TGI", "setting": "[12]", "value": 9.58, "unit": "µM"}]}, {"smiles": "COc1c(Cl)c(=O)oc2ccc(Cl)cc12", "values": [{"measurement": "TGI", "setting": "[1]", "value": "> 100", "unit": "µM"}]}, {"smiles": "COc1cc(OC)cc(-c2cc(=O)c3c(OC)c(OC)c(OC)c(OC)c3o2)c1", "values": [{"measurement": "TGI", "setting": "[1]", "value": "> 100", "unit": "µM"}]}, {"smiles": "CN(C)CCSC1=Nc2ccc(Cl)cc2C(c2ccccc2Cl)=NC1", "values": [{"measurement": "GI50", "setting": "[1]", "value": "11.8 µM and 25.1 µM"}, {"measurement": "TGI", "setting": "[1]", "value": "25.8 µM and 89.1 µM"}]}, {"smiles": "CC(C)=Cc1cc(C(=O)Nc2ccc(Cl)c(Cl)c2)nc(N)n1", "values": [{"measurement": "TGI", "setting": "[2]", "value": "> 100", "unit": "µM"}, {"measurement": "TGI", "setting": "[3]", "value": "> 100", "unit": "µM"}, {"measurement": "TGI", "setting": "[4]", "value": "> 100", "unit": "µM"}, {"measurement": "TGI", "setting": "[5]", "value": "> 100", "unit": "µM"}, {"measurement": "TGI", "setting": "[6]", "value": "> 100", "unit": "µM"}, {"measurement": "TGI", "setting": "[7]", "value": "> 100", "unit": "µM"}, {"measurement": "TGI", "setting": "[8]", "value": "> 100", "unit": "µM"}, {"measurement": "TGI", "setting": "[9]", "value": "> 100", "unit": "µM"}]}]}
